Assay: Vasorelaxant effect in rabbit pulmonary artery assessed as inhibition of KCl-induced contraction at 100 uM
Type: functional
Conditions: Oryctolagus cuniculus

Work on `N#Cc1c(-c2cccc([N+](=O)[O-])c2)cc(-c2cccc(Nc3ccc(=O)[nH]n3)c2)[nH]c1=O` yielded an inhibition at 100 µM of 9.1%.
Work on `CCOc1ccc2nc(C)cc(Nc3ccc(C4=NNC(=O)CC4)c(O)c3)c2c1` yielded an inhibition at 100 µM of 36.2%.
Molecule `COc1ccc2nc(C)cc(Nc3ccc(C4=NNC(=O)CC4)c(C)c3)c2c1` has an inhibition at 100 µM of 25%.
In the case of `COc1ccc2nc(C)cc(Nc3ccc(C4=NNC(=O)CC4C)cc3)c2c1` (stereo unspecified), the inhibition at 100 µM is reported as 21.5%.
Work on `Cc1ccc2nc(C)cc(Nc3ccc(C4=NNC(=O)CC4)c(O)c3)c2c1` yielded an inhibition at 100 µM of 18.5%.
Molecule `CCOC(=O)c1c[nH]c2ccc(C3=NNC(=O)CC3C)cc2c1=O` (stereo unspecified) has an inhibition at 100 µM of 14.5%.
In the case of `CCOC(=O)c1c[nH]c2ccc(C3=NNC(=O)CC3)cc2c1=O`, the inhibition at 100 µM is reported as 14.5%.
`COc1ccc2nc(C)cc(Nc3ccc(C4=NNC(=O)CC4)c(O)c3)c2c1` gave an inhibition at 100 µM of 34.3%.
`N#Cc1c(-c2cccnc2)cc(-c2cccc(Nc3ccc(=O)[nH]n3)c2)[nH]c1=O` gave an inhibition at 100 µM of 8.17%.
Molecule `Cc1ccc2nc(C)cc(Nc3ccc(C4=NNC(=O)CC4C)cc3)c2c1` (stereo unspecified) has an inhibition at 100 µM of 22.7%.
With `Cc1[nH]c(=O)c(C#N)cc1-c1ccncc1` [MILRINONE] the inhibition at 100 µM was 60.5%.
